This assay deals with LHRH binding sites on human ovarian cancer cells (EFO-27).
Where [1] appears, read: EFO-27 cells, competition with [125I-Tyr8]BRU-2477, 90 min.

The structures appear in SMILES notation. Read-outs that look alike come from different tables or passages of the source. Non-standard residues stand in square brackets, D forms with d. Residues, ends and D or L forms follow the SMILES beside them. *: point of attachment. DOTA = O=C(O)CN1CCN(CC(=O)O)CCN(CC(=O)*)CCN(CC(=O)O)CC1; Bpa = N[C@@H](Cc1ccc(C(=O)c2ccccc2)cc1)C(=O)O; Ala(4-thiazolyl) = N[C@@H](Cc1cscn1)C(=O)O; azaGly = NNC(=O)O; Sar = CNCC(=O)O
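Further: Cell-associated radioactivity on confluent EFO-27 monolayers in 96-well plates, measured by microplate scintillation counting.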

Method: The EFO27 human ovarian cancer cells were obtained from the American Type Culture Collection and cultured in growth medium, RPMI 1640 (Cellgro) supplemented with 10% fetal bovine serum. The cultures were maintained in a humidified atmosphere containing 5% CO2/95% air at 37° C. and passaged and harvested routinely using 0.05% trypsin/EDTA.
LHRH compounds were screened in a standard cell-based plate assay for their ability to compete with the radio-iodinated LHRH, [Darg^6, ^125I-Tyr^8,azaGly^10-LHRH-II] ([^125I-Tyr^8]BRU-2477) for binding to cancer cells. […] Briefly, EFO-27 cells were cultured and seeded in 96-well clear flat bottom plates at 30,000/well density in growth medium and were used for the assay at 100% confluence the following day, after a wash with chilled phosphate-buffered saline pH 7.4 (PBS). The binding assay was carried out by incubating cells with [^125I-Tyr^8]BRU-2477 in the absence or presence of varying concentrations of test compounds for 90 min at −10° C. All compounds were diluted in phosphate buffered saline (VWR CAT#45000-434) supplemented with 20 mM HEPES, 0.1% BSA, 0.5 mM PMSF (AEBSF), bacitracin (100 mg/L), pH 7.4. At the end of incubation, cells were washed with PBS and the radioactivity associated with each well was read using a Microplate Scintillation counter. [^125I-Tyr^8]BRU-2477 was custom made by GE Healthcare (Woburn, Mass.) and supplied as freeze-dried powder with a radiochemical purity (RCP) of >95% and specific activity of 2000 Ci/mmol.

In the case of `CN(CC(=O)N[C@@H](Cc1c[nH]cn1)C(=O)N[C@@H](Cc1c[nH]c2ccccc12)C(=O)N[C@@H](CO)C(=O)N[C@@H](Cc1cscn1)C(=O)N[C@H](CCCNC(=N)N)C(=O)N[C@@H](Cc1c[nH]c2ccccc12)C(=O)N[C@@H](Cc1ccc(C(=O)c2ccccc2)cc1)C(=O)N1CCC[C@H]1C(=O)NNC(N)=O)C(=O)CN1CCN(CC(=O)O)CCN(CC(=O)O)CCN(CC(=O)O)CC1` [BRU-2769] ({DOTA}-[Sar]HWS[Ala(4-thiazolyl)][dR]W[Bpa]P[azaGly]-NH2; C-terminus assumed), the response was half-maximal at 7340 nM (EC50). Take `CN(CC(=O)N[C@@H](Cc1c[nH]cn1)C(=O)N[C@@H](Cc1c[nH]c2ccccc12)C(=O)N[C@@H](CO)C(=O)N[C@@H](Cc1c[nH]cn1)C(=O)N[C@H](CCCNC(=N)N)C(=O)N[C@@H](Cc1c[nH]c2ccccc12)C(=O)N[C@@H](Cc1ccc(C(=O)c2ccccc2)cc1)C(=O)N1CCC[C@H]1C(=O)NNC(N)=O)C(=O)CNC(=O)CN1CCN(CC(=O)O)CCN(CC(=O)O)CCN(CC(=O)O)CC1` [compound 2717]: the response (Table 13: linker between AA1 and DO3A10CM, EFO-27 cells) was half-maximal at 1530 nM (EC50). Take `CNCC(=O)N[C@@H](CCCNC(=N)N)C(=O)N[C@@H](Cc1c[nH]c2ccccc12)C(=O)N[C@@H](CO)C(=O)N[C@@H](Cc1c[nH]cn1)C(=O)N[C@H](CCCNC(=N)N)C(=O)N[C@@H](Cc1c[nH]c2ccccc12)C(=O)N[C@@H](Cc1ccc(C(=O)c2ccccc2)cc1)C(=O)N1CCC[C@H]1C(=O)NCC1CCCCN1C(=O)CN1CCN(CC(=O)O)CCN(CC(=O)O)CCN(CC(=O)O)CC1` (some centres unmarked) [compound 3102]: the EC50 (in general, the midpoint of the concentration-response curve) worked out at 200 ± 70 nM. Take `CN(CC(=O)N[C@@H](Cc1c[nH]cn1)C(=O)N[C@@H](Cc1c[nH]c2ccccc12)C(=O)N[C@@H](CO)C(=O)N[C@@H](Cc1c[nH]cn1)C(=O)N[C@H](CCCNC(=N)N)C(=O)N[C@@H](Cc1c[nH]c2ccccc12)C(=O)N[C@@H](Cc1c(F)c(F)c(F)c(F)c1F)C(=O)N1CCC[C@H]1C(=O)NNC(N)=O)C(=O)CN1CCN(CC(=O)O)CCN(CC(=O)O)CCN(CC(=O)O)CC1` [BRU-2722]: the EC50 is 4620 nM. On the same count and under the same terms, the result for `N=C(N)NCCC[C@H](NC(=O)[C@@H](Cc1ccc2ccccc2c1)NC(=O)CN1CCN(CC(=O)O)CCN(CC(=O)O)CCN(CC(=O)O)CC1)C(=O)N[C@@H](Cc1c[nH]c2ccccc12)C(=O)N[C@@H](CO)C(=O)N[C@@H](Cc1c[nH]cn1)C(=O)N[C@H](CCCNC(=N)N)C(=O)N[C@@H](Cc1c[nH]c2ccccc12)C(=O)O` [compound 3046] (HELM PEPTIDE1{[O=C(O)CN1CCN(CC(=O)O)CCN(CC(=O)[*:2])CCN(CC(=O)O)CC1].[O=C([C@@H](Cc1ccc2ccccc2c1)N[*:1])[*:2]].R.W.S.H.[dR].W}$$$$V2.0; N-terminus assumed) reads 15900 nM; that for `CN(CC(=O)N[C@@H](Cc1cscn1)C(=O)N[C@@H](Cc1c[nH]c2ccccc12)C(=O)N[C@@H](CO)C(=O)N[C@@H](Cc1c[nH]cn1)C(=O)N[C@H](CCCNC(=N)N)C(=O)N[C@@H](Cc1c[nH]c2ccccc12)C(=O)N[C@@H](Cc1ccc(C(=O)c2ccccc2)cc1)C(=O)N1CCC[C@H]1C(=O)NNC(N)=O)C(=O)CN1CCN(CC(=O)O)CCN(CC(=O)O)CCN(CC(=O)O)CC1` [BRU-2768] ({DOTA}-[Sar][Ala(4-thiazolyl)]WSH[dR]W[Bpa]P[azaGly]-NH2), 12800 nM. Turning to `CN(CC(=O)N[C@@H](Cc1c[nH]cn1)C(=O)N[C@@H](Cc1c[nH]c2ccccc12)C(=O)N[C@@H](CO)C(=O)N[C@@H](Cc1c[nH]cn1)C(=O)N[C@H](CCCNC(=N)N)C(=O)N[C@@H](Cc1c[nH]c2ccccc12)C(=O)N[C@@H](Cc1ccc(C(=O)c2ccccc2)cc1)C(=O)N1CCC[C@H]1C(=O)NNC(N)=O)C(=O)CNC(=O)CN1CCN(CC(=O)O)CCN(CC(=O)O)CCN(CC(=O)O)CC1` [BRU-2717], the half-maximal effective concentration (EC50) (Table 5: modifications of amino acids at positions 1 and 2, in vitro binding on EFO-27 cells) was 1550 nM.

With `N=C(N)NCCC[C@H](NC(=O)[C@@H](Cc1ccc2ccccc2c1)NC(=O)CN1CCN(CC(=O)O)CCN(CC(=O)O)CCN(CC(=O)O)CC1)C(=O)N[C@@H](Cc1c[nH]c2ccccc12)C(=O)N[C@@H](CO)C(=O)N[C@@H](Cc1c[nH]cn1)C(=O)N[C@H](CCCNC(=N)N)C(=O)N[C@@H](Cc1c[nH]c2ccccc12)C(=O)N[C@@H](Cc1ccc(C(=O)c2ccccc2)cc1)C(=O)N1CCC[C@H]1C(=O)NCC(=O)NCCCCO` [compound 2986], the EC50 under setting [1] is 1660 nM. With `CN(CC(=O)N[C@@H](Cc1c[nH]cn1)C(=O)N[C@@H](Cc1c[nH]c2ccccc12)C(=O)N[C@@H](CO)C(=O)N[C@@H](Cc1c[nH]cn1)C(=O)N[C@H](CCCNC(=N)N)C(=O)N[C@@H](Cc1c[nH]c2ccccc12)C(=O)NC1(C(=O)N2CCC[C@H]2C(=O)NNC(N)=O)Cc2ccccc2C1)C(=O)CN1CCN(CC(=O)O)CCN(CC(=O)O)CCN(CC(=O)O)CC1` [BRU-2764], the response was half-maximal at 4310 nM (EC50). As for `CN(CC(=O)N[C@@H](Cc1c[nH]cn1)C(=O)N[C@@H](Cc1c[nH]c2ccccc12)C(=O)N[C@@H](CO)C(=O)N[C@@H](Cc1c[nH]cn1)C(=O)N[C@H](CCCNC(=N)N)C(=O)N[C@@H](Cc1c[nH]c2ccccc12)C(=O)N[C@@H](Cc1cccnc1)C(=O)N1CCC[C@H]1C(=O)NNC(N)=O)C(=O)CN1CCN(CC(=O)O)CCN(CC(=O)O)CCN(CC(=O)O)CC1` [BRU-2726], the EC50 was determined as 17400 nM. Regarding `CN(CC(=O)N[C@@H](Cc1c[nH]cn1)C(=O)N[C@@H](Cc1c[nH]c2ccccc12)C(=O)N[C@@H](CO)C(=O)N[C@@H](Cc1c[nH]cn1)C(=O)N[C@H](CCCNC(=N)N)C(=O)N[C@@H](Cc1c[nH]c2ccccc12)C(=O)N[C@@H](Cc1ccc(C(C)(C)C)cc1)C(=O)N1CCC[C@H]1C(=O)NNC(N)=O)C(=O)CN1CCN(CC(=O)O)CCN(CC(=O)O)CCN(CC(=O)O)CC1` [BRU-2634], the midpoint of the response, the EC50, lay at 980 nM. In turn, `NCCCC[C@@H](NC(=O)[C@H](Cc1c[nH]cn1)NC(=O)[C@H](CO)NC(=O)[C@H](Cc1c[nH]c2ccccc12)NC(=O)[C@H](Cc1c[nH]cn1)NC(=O)[C@@H]1CCC(=O)N1)C(=O)N[C@@H](Cc1c[nH]c2ccccc12)C(=O)N[C@@H](Cc1ccc(O)cc1)C(=O)N1CCC[C@H]1C(=O)NNC(N)=O` [BRU-2437] (HELM PEPTIDE1{[Glp].H.W.S.H.[dK].W.Y.P.[O=C(NN[*:1])[*:2]].[am]}$$$$V2.0) showed an EC50 of 8540 nM. `N=C(N)NCCC[C@H](NC(=O)[C@H](Cc1ccc(C(=O)O)cc1)NC(=O)CN1CCN(CC(=O)O)CCN(CC(=O)O)CCN(CC(=O)O)CC1)C(=O)N[C@@H](Cc1c[nH]c2ccccc12)C(=O)N[C@@H](CO)C(=O)N[C@@H](Cc1c[nH]cn1)C(=O)N[C@H](CCCNC(=N)N)C(=O)N[C@@H](Cc1c[nH]c2ccccc12)C(=O)N[C@@H](Cc1ccc(C(=O)c2ccccc2)cc1)C(=O)N1CCC[C@H]1C(=O)NNC(N)=O` [BRU-3092] displayed a half-maximal effective concentration (EC50) of 2000 nM. As to `N=C(N)NCCC[C@H](NC(=O)[C@@H](Cc1ccc2ccccc2c1)NC(=O)CN1CCN(CC(=O)O)CCN(CC(=O)O)CCN(CC(=O)O)CC1)C(=O)N[C@@H](Cc1c[nH]c2ccccc12)C(=O)N[C@@H](CO)C(=O)N[C@@H](Cc1c[nH]cn1)C(=O)N[C@H](CCCNC(=N)N)C(=O)N[C@@H](Cc1c[nH]c2ccccc12)C(=O)N[C@@H](Cc1ccc(C(=O)c2ccccc2)cc1)C(=O)N1CC[C@H]1C(=O)NNC(N)=O` [compound 2993], the EC50 under setting [1] was 380 nM.

The molecule `CN(CC(=O)N[C@@H](Cc1c[nH]cn1)C(=O)N[C@@H](Cc1c[nH]c2ccccc12)C(=O)N[C@@H](CO)C(=O)N[C@@H](Cc1c[nH]cn1)C(=O)N[C@H](CCCNC(=N)N)C(=O)N[C@@H](Cc1c[nH]c2ccccc12)C(=O)N[C@@H](CCCNC(=N)N)C(=O)N1CCC[C@H]1C(=O)NNC(N)=O)C(=O)CN1CCN(CC(=O)O)CCN(CC(=O)O)CCN(CC(=O)O)CC1` [BRU-2723] (HELM PEPTIDE1{[O=C(O)CN1CCN(CC(=O)O)CCN(CC(=O)[*:2])CCN(CC(=O)O)CC1].[Sar].H.W.S.H.[dR].W.R.P.[O=C(NN[*:1])[*:2]].[am]}$$$$V2.0) showed an EC50 of 2830 nM. Consider `CNCC(=O)N[C@@H](CCCNC(=N)N)C(=O)N[C@@H](Cc1c[nH]c2ccccc12)C(=O)N[C@@H](CO)C(=O)N[C@@H](Cc1c[nH]cn1)C(=O)N[C@H](CCCNC(=N)N)C(=O)N[C@@H](Cc1c[nH]c2ccccc12)C(=O)N[C@@H](Cc1ccc(C(=O)c2ccccc2)cc1)C(=O)N1CCC[C@H]1C(=O)NCCCN(C)CCCNC(=O)CN1CCN(CC(=O)O)CCN(CC(=O)O)CCN(CC(=O)O)CC1` [BRU-3045], for which the concentration giving a half-maximal response (EC50) is at most 200 nM.

Turning to `CN(CC(=O)N[C@@H](Cc1c[nH]cn1)C(=O)N[C@@H](Cc1c[nH]c2ccccc12)C(=O)N[C@@H](CO)C(=O)N[C@@H](Cc1c[nH]cn1)C(=O)N[C@H](CCCCNC(=N)N)C(=O)N[C@@H](Cc1c[nH]c2ccccc12)C(=O)N[C@@H](Cc1ccc(C(=O)c2ccccc2)cc1)C(=O)N1CCC[C@H]1C(=O)NNC(N)=O)C(=O)CN1CCN(CC(=O)O)CCN(CC(=O)O)CCN(CC(=O)O)CC1` [BRU-2893], a half-maximal effect under setting [1] (EC50) was put at 2600 nM. `CC(C)C[C@H](NC(=O)[C@@H](CCCNC(=N)N)NC(=O)[C@H](Cc1ccc(O)cc1)NC(=O)[C@H](CO)NC(=O)[C@H](Cc1c[nH]c2ccccc12)NC(=O)[C@H](Cc1c[nH]cn1)NC(=O)CN(C)C(=O)CN1CCN(CC(=O)O)CCN(CC(=O)O)CCN(CC(=O)O)CC1)C(=O)N[C@@H](Cc1ccc(C(=O)c2ccccc2)cc1)C(=O)N1CCC[C@H]1C(=O)NNC(N)=O` [compound 2670] ({DOTA}-[Sar]HWSY[dR]L[Bpa]P[azaGly]-NH2) showed an EC50 (Table 11: modification of amino acid at position 5, EFO-27 cells) of 8840 nM.

The molecule `CNCC(=O)N[C@@H](CCCNC(=N)N)C(=O)N[C@@H](Cc1c[nH]c2ccccc12)C(=O)N[C@@H](CO)C(=O)N[C@@H](Cc1c[nH]cn1)C(=O)N[C@H](CCCNC(=N)N)C(=O)N[C@@H](Cc1c[nH]c2ccccc12)C(=O)N[C@@H](Cc1ccc(C(=O)c2ccccc2)cc1)C(=O)N1CCC[C@H]1C(=O)NCCCCCNC(=O)CN1CCN(CC(=O)O)CCN(CC(=O)O)CCN(CC(=O)O)CC1` [BRU-3085] had an EC50 of 230 to 500 nM.

As to `CN(CC(=O)N[C@@H](Cc1c[nH]cn1)C(=O)N[C@@H](Cc1c[nH]c2ccccc12)C(=O)N[C@@H](CO)C(=O)N[C@@H](Cc1c[nH]cn1)C(=O)N[C@H](CCCNC(=N)N)C(=O)N[C@@H](Cc1c[nH]c2ccccc12)C(=O)N[C@@H](Cc1ccc(Oc2ccc(O)cc2)cc1)C(=O)N1CCC[C@H]1C(=O)NNC(N)=O)C(=O)CN1CCN(CC(=O)O)CCN(CC(=O)O)CCN(CC(=O)O)CC1` [BRU-2823], the EC50 came out at 1610 nM.

The values are drawn from patent US20120045393A1 (priority 2009, published 2012).
